Experiment [1] concerns the target T1, EP1 receptors (Homo sapiens, UniProt P34995).
T1 sequence (P34995 1-402): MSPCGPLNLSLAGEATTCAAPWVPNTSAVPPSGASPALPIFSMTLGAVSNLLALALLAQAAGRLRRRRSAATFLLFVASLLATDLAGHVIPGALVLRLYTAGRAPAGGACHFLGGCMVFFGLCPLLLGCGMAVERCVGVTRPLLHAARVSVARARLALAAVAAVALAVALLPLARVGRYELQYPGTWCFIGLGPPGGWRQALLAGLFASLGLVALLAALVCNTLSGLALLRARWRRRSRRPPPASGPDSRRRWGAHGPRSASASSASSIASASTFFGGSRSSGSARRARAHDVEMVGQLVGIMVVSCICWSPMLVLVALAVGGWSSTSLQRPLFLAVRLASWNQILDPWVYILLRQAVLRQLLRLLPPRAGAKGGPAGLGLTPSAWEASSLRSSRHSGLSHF
Kind of experiment: human EP1 calcium mobilisation assay (CHO-K1 cells, FLIPR, PGE2). The class given is cell-based. Set-up: expressed in transfected cells; host or cells: CHO-K1 cells, pCIN vector. Particulars: free bases or sodium salts; averages of a number of experiments; read-out: functional pKi value, human EP1 calcium mobilisation assay (converted). In short, it runs like this: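 CHO-K1 cells stably transfected with human EP1 cDNA, loaded with Fluo-4 AM after 24 h culture at 37° C. Compounds added first, then PGE2; antagonism read as inhibition of PGE2-induced intracellular calcium rise on FLIPR. pIC50 taken as concentration giving half-maximal inhibition, from curve fitting.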

The target in experiment [2] is T1, EP1 receptors. Kind of experiment: Binding assay for the human prostanoid EP1 receptor (competition with [3H]-PGE2). As to conditions: [3H]-PGE2 competition; averages of a number of experiments; read-out: pIC50 value, binding assay for the human prostanoid EP1 receptor (converted). Set-up: expressed in transfected cells; host or cells: CHO-K1 cells, membrane fraction. Summed up:
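Membranes from CHO-K1 cells stably expressing human EP1 incubated with compounds and [3H]-PGE2 (3 nM final) for 30 min at 30° C in MES buffer with EDTA and MgCl2, pH 6. Bound radioactivity measured after filtration; IC50 from nonlinear fit of specific binding inhibition.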

The values that follow come from patent US20080207708A1, “Oxazole and Thiazole Compounds and Their Use in the Treatment of Pge2 Mediated Disorders” (GLAXO GROUP LIMITED, priority 2005, published 2008).

The structures appear in SMILES notation. Structures can show the parent of a compound that is named as a salt. Bounds are passed on as bounds.

In the case of `CC(C)COc1ccc(Cl)cc1Cc1nc(-c2nc3ccc(N4CCN(C)CC4)cc3[nH]2)cs1` [Example 142, 2-[2-({5-Chloro-2-[(2-methylpropyl)oxy]phenyl}methyl)-1,3-thiazol-4-yl]-5-(4-methyl-1-piperazinyl)-1H-benzimidazole hydrochloride], in experiment [1], the Ki was less than 1 µM. Moreover, in experiment [2], the IC50 is no more than 0.0316 µM.

Consider `OCc1cccc2nc(-c3csc(Cc4cc(Cl)ccc4OCc4ccccc4)n3)[nH]c12` [Example 143, {2-[2-({5-Chloro-2-[(phenylmethyl)oxy]phenyl}methyl)-1,3-thiazol-4-yl]-1H-benzimidazol-4-yl}methanol hydrochloride], for which the Ki in experiment [1] is greater than 1 µM. Moreover, the IC50 in experiment [2] was no more than 1 µM.

As for `CC(C)COc1ccc(Cl)cc1Cc1nc(-c2nc3ccc(N4CCOCC4)nc3[nH]2)cs1` [Example 144, 2-[2-({5-Chloro-2-[(2-methylpropyl)oxy]phenyl}methyl)-1,3-thiazol-4-yl]-5-(4-morpholinyl)-1H-imidazo[4,5-b]pyridine], in experiment [1], the Ki is no more than 0.0316 µM. Besides, the IC50 in experiment [2] was no more than 1 µM.

`CC(C)COc1ccc(Cl)cc1Cc1nc(-c2nc3ccc(N4CCCC4)nc3[nH]2)cs1` [Example 145, 2-[2-({5-Chloro-2-[(2-methylpropyl)oxy]phenyl}methyl)-1,3-thiazol-4-yl]-5-(1-pyrrolidinyl)-1H-imidazo[4,5-b]pyridinehydrochloride]: the Ki in experiment [1] is less than 1 µM. Further, in experiment [2], the IC50 was no more than 1 µM.

As to `CC(C)COc1ccc(Cl)cc1Cc1nc(-c2nc3ccc(N4CCN(C)CC4)nc3[nH]2)cs1` [Example 146, 2-[2-({5-chloro-2-[(2-methylpropyl)oxy]phenyl}methyl)-1,3-thiazol-4-yl]-5-(4-methyl-1-piperazinyl)-1H-imidazo[4,5-b]pyridinehydrochloride], in experiment [1], the Ki was less than 1 µM. For the same molecule, in experiment [2], the IC50 was no more than 0.0316 µM.

As for `CC(C)COc1ccc(Cl)cc1Cc1nc(-c2nc3ccc(N4CCCCC4)nc3[nH]2)cs1` [Example 147], the Ki in experiment [1] was less than 1 µM. Also, in experiment [2], the IC50 is no more than 1 µM.

On to `CN1CCN(c2ccc3nc(-c4csc(Cc5cc(Cl)ccc5OCc5ccccc5)n4)[nH]c3c2)CC1` [Example 148, 2-[2-({5-Chloro-2-[(phenylmethyl)oxy]phenyl}methyl)-1,3-thiazol-4-yl]-5-(4-methyl-1-piperazinyl)-1H-benzimidazole hydrochloride], for which the Ki in experiment [1] was less than 1 µM. In addition, in experiment [2], the IC50 was no more than 0.0316 µM.

Take `Clc1ccc(OCc2ccccc2)c(Cc2nc(-c3nc4ccc(N5CCOCC5)cc4[nH]3)cs2)c1` [Example 149, 2-[2-({5-Chloro-2-[(phenylmethyl)oxy]phenyl}methyl)-1,3-thiazol-4-yl]-5-(4-morpholinyl)-1H-benzimidazole hydrochloride]: the Ki in experiment [1] was less than 1 µM. Besides, the IC50 in experiment [2] was no more than 0.0316 µM.

Turning to `Clc1ccc(OCc2ccccc2)c(Cc2nc(-c3nc4cc5cn[nH]c5cc4[nH]3)cs2)c1` [Example 150, 6-[2-({5-Chloro-2-[(phenylmethyl)oxy]phenyl}methyl)-1,3-thiazol-4-yl]-1,5-dihydroimidazo[4,5-f]indazolehydrochloride], the Ki in experiment [1] is less than 1 µM. For the same molecule, in experiment [2], the IC50 is no more than 0.0316 µM.

Consider `CN1CCN(c2ccc3[nH]c(-c4csc(Cc5cc(Cl)ccc5OCc5ccccc5)n4)nc3n2)CC1` [Example 151, 2-[2-({5-Chloro-2-[(phenylmethyl)oxy]phenyl}methyl)-1,3-thiazol-4-yl]-5-(4-methyl-1-piperazinyl)-1H-imidazo[4,5-b]pyridine hydrochloride], for which, in experiment [1], the Ki is less than 1 µM. Besides, the IC50 in experiment [2] was no more than 0.0316 µM.

As to `CN(C)c1ccc2nc(-c3csc(Cc4cc(Cl)ccc4OCc4ccccc4)n3)[nH]c2n1` [Example 152, 2-[2-({-5-Chloro-2-[(phenylmethyl)oxy]phenyl}methyl)-1,3-thiazol-4-yl]-N,N-dimethyl-1H-imidazo[4,5-b]pyridin-5-amine hydrochloride], the Ki in experiment [1] is less than 1 µM. For the same molecule, in experiment [2], the IC50 was no more than 0.0316 µM.

Consider `OCCc1ccc2nc(-c3csc(Cc4cc(Cl)ccc4OCc4ccccc4)n3)[nH]c2c1` [Example 153, 2-{2-[2-({5-Chloro-2-[(phenylmethyl)oxy]phenyl}methyl)-1,3-thiazol-4-yl]-1H-benzimidazol-5-yl}ethanol], for which, in experiment [1], the Ki is less than 1 µM. In addition, the IC50 in experiment [2] is no more than 0.0316 µM.

Turning to `CC(C)COc1ccc(Cl)cc1Cc1nc(-c2nc3ccc(CCO)cc3[nH]2)cs1` [Example 154, 2-{2-[2-({5-Chloro-2-[(2-methylpropyl)oxy]phenyl}methyl)-1,3-thiazol-4-yl]-1H-benzimidazol-5-yl}ethanol], the Ki in experiment [1] was no more than 0.0316 µM. Further, the IC50 in experiment [2] was no more than 0.0316 µM.

`CC(C)COc1ccc(Cl)cc1Cc1nc(-c2nc3cc(F)c(F)cc3[nH]2)cs1` [Example 155, 2-[2-({5-Chloro-2-[(2-methylpropyl)oxy]phenyl}methyl)-1,3-thiazol-4-yl]-5,6-difluoro-1H-benzimidazole]: the Ki in experiment [1] is less than 1 µM. Besides, the IC50 in experiment [2] was no more than 1 µM.

On to `Cc1nnc(-c2csc(Cc3cc(Cl)ccc3OCC(C)C)n2)[nH]1` [Example 158, 3-[2-({5-Chloro-2-[(2-methyl-propyl)oxy]-phenyl}methyl)-1,3-thiazol-4-yl]-5-methyl-1H-1,2,4-triazole], for which, in experiment [1], the Ki was less than 1 µM. The IC50 in experiment [2] was no more than 1 µM.

For `Cc1nnc(-c2csc(Cc3cc(Cl)ccc3OCc3ccccc3)n2)[nH]1` [Example 159, 3-[2-({5-Chloro-2-[(phenylmethyl)oxy]phenyl}methyl)-1,3-thiazol-4-yl]-5-methyl-1H-1,2,4-triazole], the Ki in experiment [1] is less than 1 µM. For the same molecule, in experiment [2], the IC50 was no more than 1 µM.

Consider `Clc1ccc(OCc2ccccc2)c(Cc2nc(-c3cn4ccccc4n3)cs2)c1` [Example 160, 2-[2-({5-Chloro-2-[(phenylmethyl)oxy]phenyl}methyl)-1,3-thiazol-4-yl]imidazo[1,2-a]pyridine], for which the Ki in experiment [1] was less than 1 µM. Moreover, in experiment [2], the IC50 is no more than 1 µM.

As for `CC(C)COc1ccc(Cl)cc1Nc1nc(-c2nc3ccccc3[nH]2)cs1` [Example 164, 4-(1H-Benzimidazol-2-yl)-N-{5-chloro-2-[(2-methylpropyl)oxy]phenyl}-1,3-thiazol-2-aminehydrochloride], the Ki in experiment [1] was less than 1 µM. In experiment [2], the IC50 was no more than 0.0316 µM.

In the case of `CC(C)COc1ccc(Cl)cc1Nc1nc(-c2nc3ccc(N4CCN(C)CC4)cc3[nH]2)cs1` [Example 165, N-{5-Chloro-2-[(2-methylpropyl)oxy]phenyl}-4-[5-(4-methyl-1-piperazinyl)-1H-benzimidazol-2-yl]-1,3-thiazol-2-aminetrihydrochloride], in experiment [1], the Ki is greater than 1 µM. In addition, the IC50 in experiment [2] is no more than 0.0316 µM.

On to `CC(C)COc1ccc(Cl)cc1Cc1nc(-c2nc3ccc(CCN(C)C)cc3[nH]2)co1` [Example 166, (2-{2-[2-({5-Chloro-2-[(2-methylpropyl)oxy]phenyl}methyl)-1,3-oxazol-4-yl]-1H-benzimidazol-5-yl}ethyl)dimethylamine hydrochloride], for which the Ki in experiment [1] was less than 1 µM. Also, the IC50 in experiment [2] is no more than 0.0316 µM.

For `CC(C)COc1ccc(Cl)cc1Cc1nc(-c2nc3ccc(CCN4CCN(C)CC4)cc3[nH]2)co1` [Example 167, 2-[2-({5-chloro-2-[(2-methylpropyl)oxy]phenyl}methyl)-1,3-oxazol-4-yl]-5-[2-(4-methyl-1-piperazinyl)ethyl]-1H-benzimidazolehydrochloride], the Ki in experiment [1] was less than 1 µM. Also, the IC50 in experiment [2] is no more than 0.0316 µM.

Consider `CC(C)COc1ccc(Cl)cc1Cc1nc(-c2nc3ccc(CCN4CCCCC4)cc3[nH]2)co1` [Example 168, 2-[2-({5-chloro-2-[(2-methylpropyl)oxy]phenyl}methyl)-1,3-oxazol-4-yl]-5-[2-(1-piperidinyl)ethyl]-1H-benzimidazolehydrochloride], for which, in experiment [1], the Ki was less than 1 µM. The IC50 in experiment [2] was no more than 0.0316 µM.

In the case of `CC(C)COc1ccc(Cl)cc1Cc1nc(-c2nc3ccc(CCN4CCCC4)cc3[nH]2)co1` [Example 169, 2-[2-({5-chloro-2-[(2-methylpropyl)oxy]phenyl}methyl)-1,3-oxazol-4-yl]-5-[2-(1-pyrrolidinyl)ethyl]-1H-benzimidazolehydrochloride], the Ki in experiment [1] is less than 1 µM. In experiment [2], the IC50 was no more than 0.0316 µM.

`CN(C)Cc1ccc2nc(-c3coc(Cc4cc(Cl)ccc4OCc4ccccc4)n3)[nH]c2c1` [Example 170, ({2-[2-({5-chloro-2-[(phenylmethyl)oxy]phenyl}-methyl)-1,3-oxazol-4-yl]-1H-benzimidazol-5-yl}methyl)dimethylaminehydrochloride]: the Ki in experiment [1] was less than 1 µM. In addition, the IC50 in experiment [2] was no more than 1 µM.
